Data as given in ChEMBL document CHEMBL5325509, “Pyrrolidinedione-thiazolidinone hybrid molecules with potent cytotoxic effect in squamous cell carcinoma SCC-15 cells” (Bioorg Med Chem, 2023).
Active and inactive are the calls of the source. No cut-off for these calls is given here.

Assays:
[1] = system: Leukemic tumor cell line; experiment: Cytotoxicity against human Leukemic tumor cell line assessed as inhibition of cell growth measured at 72 hrs; assay type: functional, cell-based
[2] = system: Breast carcinoma cell; experiment: Cytotoxicity against human Breast carcinoma cell assessed as inhibition of cell growth measured at 72 hrs; assay type: functional, cell-based
[3] = Cytotoxicity against human Cervical carcinoma cell assessed as inhibition of cell growth measured at 72 hrs; assay type: functional, cell-based
[4] = system: Colon carcinoma cell; experiment: Cytotoxicity against human Colon carcinoma cell assessed as inhibition of cell growth measured at 72 hrs; assay type: functional, cell-based
[5] = system: Lung cancer cell line; experiment: Cytotoxicity against human Lung cancer cell line assessed as inhibition of cell growth measured at 72 hrs; assay type: functional, cell-based
[6] = system: Glioblastoma cell line; experiment: Cytotoxicity against human Glioblastoma cell line assessed as inhibition of cell growth measured at 72 hrs; assay type: functional, cell-based
[7] = system: SCC-15; experiment: Cytotoxicity against human SCC-15 cells assessed as LDH release incubated for 24 hrs; assay type: functional, cell-based; details: SCC-15, 24 h
[8] = system: SCC-15; experiment: Cytotoxicity against human SCC-15 cells assessed as LDH release incubated for 48 hrs; assay type: functional, cell-based; details: SCC-15, 48 h
[9] = system: SCC-15; experiment: Cytotoxicity against human SCC-15 cells assessed as LDH release at 10 uM incubated for 24 hrs relative to control; assay type: functional
[10] = system: SCC-15; experiment: Cytotoxicity against human SCC-15 cells assessed as LDH release at 50 uM incubated for 24 hrs relative to control; assay type: functional
[11] = system: SCC-15; experiment: Cytotoxicity against human SCC-15 cells assessed as LDH release at 100 uM incubated for 24 hrs relative to control; assay type: functional
[12] = system: SCC-15; experiment: Cytotoxicity against human SCC-15 cells assessed as LDH release at 50 uM incubated for 48 hrs relative to control; assay type: functional
[13] = system: SCC-15; experiment: Cytotoxicity against human SCC-15 cells assessed as LDH release at 100 uM incubated for 48 hrs relative to control; assay type: functional
[14] = system: SCC-15; experiment: Cytotoxicity against human SCC-15 cells assessed as decrease in cellular metabolic activity incubated for 24 hrs by resazurin reduction assay; assay type: functional, cell-based; details: SCC-15, 24 h
[15] = system: SCC-15; experiment: Cytotoxicity against human SCC-15 cells assessed as decrease in cellular metabolic activity incubated for 48 hrs by resazurin reduction assay; assay type: functional, cell-based; details: SCC-15, 48 h
[16] = system: SCC-15; experiment: Cytotoxicity against human SCC-15 cells assessed as decrease in cellular metabolic activity at 10 uM incubated for 24 hrs by resazurin reduction assay relative to control; assay type: functional; set-up: scale not given: the % may be the effect or the level left
[17] = system: SCC-15; experiment: Cytotoxicity against human SCC-15 cells assessed as decrease in cellular metabolic activity at 50 uM incubated for 24 hrs by resazurin reduction assay relative to control; assay type: functional; set-up: scale not given: the % may be the effect or the level left
[18] = system: SCC-15; experiment: Cytotoxicity against human SCC-15 cells assessed as decrease in cellular metabolic activity at 100 uM incubated for 24 hrs by resazurin reduction assay relative to control; assay type: functional; set-up: scale not given: the % may be the effect or the level left
[19] = system: SCC-15; experiment: Cytotoxicity against human SCC-15 cells assessed as decrease in cellular metabolic activity at 10 uM incubated for 48 hrs by resazurin reduction assay relative to control; assay type: functional; set-up: scale not given: the % may be the effect or the level left
[20] = system: SCC-15; experiment: Cytotoxicity against human SCC-15 cells assessed as decrease in cellular metabolic activity at 50 uM incubated for 48 hrs by resazurin reduction assay relative to control; assay type: functional; set-up: scale not given: the % may be the effect or the level left
[21] = system: SCC-15; experiment: Cytotoxicity against human SCC-15 cells assessed as decrease in cellular metabolic activity at 100 uM incubated for 48 hrs by resazurin reduction assay relative to control; assay type: functional; set-up: scale not given: the % may be the effect or the level left
[22] = system: HaCaT; experiment: Cytotoxicity against human HaCaT cells assessed reduction in cellular metabolic activity at 0.1 to 100 uM incubated for 24 to 72 hrs by MTT assay; assay type: toxicity, cell-based; details: dose lower 0.1 µM, time lower 24 hrs, dose upper 100 µM, time upper 72 hrs
[23] = system: BALB/3T3; experiment: Cytotoxicity against mouse BALB/3T3 cells assessed reduction in cellular metabolic activity at 0.1 to 100 uM incubated for 24 to 72 hrs by MTT assay; assay type: toxicity, cell-based; details: balb/3t3, 100 µM, dose lower 0.1 µM, time lower 24 hrs, dose upper 100 µM, time upper 72 hrs
[24] = Cytotoxicity against human HaCaT cells assessed reduction in cellular metabolic activity incubated for 24 to 72 hrs by MTT assay; assay type: toxicity, cell-based
[25] = Cytotoxicity against mouse BALB/3T3 cells assessed reduction in cellular metabolic activity incubated for 24 to 72 hrs by MTT assay; assay type: toxicity, cell-based
[26] = Cytotoxicity against human HaCaT cells assessed reduction in cellular metabolic activity incubated for 72 hrs by MTT assay; assay type: toxicity, cell-based
[27] = system: SCC-15; experiment: Induction of intracellular ROS generation in human SCC-15 cells at 0.001 to 10 uM incubated for 24 to 48 hrs by DCFH-DA staining based immunofluorescence analysis; assay type: functional, cell-based; details: dose 0.001-10 µM, time 24-48 hrs
[28] = system: SCC-15; experiment: Induction of intracellular ROS generation in human SCC-15 cells at 50 to 100 uM incubated for 24 hrs by DCFH-DA staining based immunofluorescence analysis; assay type: functional; details: dose 50-100 µM
[29] = system: SCC-15; experiment: Induction of intracellular ROS generation in human SCC-15 cells at 50 to 100 uM incubated for 48 hrs by DCFH-DA staining based immunofluorescence analysis; assay type: functional; details: dose 50-100 µM
[30] = Upregulation of Ki67 expression in PPARgamma-silenced human SCC-15 cells at 1 uM incubated for 48 hrs Western blot analysis relative to siRNA control; assay type: functional
[31] = system: SCC-15; experiment: Induction of intracellular ROS generation in human SCC-15 cells incubated for 24 to 48 hrs by DCFH-DA staining based immunofluorescence analysis; assay type: functional, cell-based; details: dose 0.001-100 µM, time 24-48 hrs
[32] = system: SCC-15; experiment: Induction of intracellular ROS generation in human SCC-15 cells at 0.001 to 100 uM by DCFH-DA staining based immunofluorescence analysis; assay type: functional, cell-based; details: dose 0.001-100 µM, time 24-48 hrs, TDE = time-dependent effect
[33] = Upregulation of Caspase-3 activity in human SCC-15 cells at 100 uM measured after 24 hrs in presence of Ac-DEVD-AMC by fluorescence microplate reader analysis; assay type: functional
[34] = Upregulation of Caspase-3 activity in human SCC-15 cells at 100 uM measured after 48 hrs in presence of Ac-DEVD-AMC by fluorescence microplate reader analysis; assay type: functional
[35] = Downregulation of PPARgamma mRNA expression in human SCC-15 cells at 1 uM measured after 24 hrs by RT-PCR analysis (reference value: 79.68 %); assay type: functional
[36] = Downregulation of AHR mRNA expression in human SCC-15 cells at 1 uM measured after 24 hrs by RT-PCR analysis (reference value: 17.30 %); assay type: functional
[37] = Downregulation of NRFL2 mRNA expression in human SCC-15 cells at 1 uM measured after 24 hrs by RT-PCR analysis (reference value: 18.36 %); assay type: functional
[38] = Upregulation of AHR mRNA expression in PPARgamma knockdown human SCC-15 cells at 1 uM measured after 24 hrs by RT-PCR analysis; assay type: functional
[39] = Upregulation of NRFL2 mRNA expression in PPARgamma knockdown human SCC-15 cells at 1 uM measured after 24 hrs by RT-PCR analysis; assay type: functional
[40] = Downregulation of PPARgamma mRNA expression in PPARgamma-silenced human SCC-15 cells at 1 uM measured after 24 hrs by RT-PCR analysis; assay type: functional
[41] = Upregulation of AHR mRNA expression in PPARgamma-silenced human SCC-15 cells at 1 uM measured after 24 hrs by RT-PCR analysis; assay type: functional
[42] = Upregulation of AHR expression in PPARgamma-silenced human SCC-15 cells at 1 uM incubated for 48 hrs Western blot analysis relative to control; assay type: functional
[43] = Downregulation of AHR expression in PPARgamma-silenced human SCC-15 cells at 1 uM incubated for 48 hrs Western blot analysis relative to SiRNA control; assay type: functional
[44] = Upregulation of PPARgamma expression in PPARgamma-silenced human SCC-15 cells at 1 uM incubated for 48 hrs Western blot analysis relative to control; assay type: functional
[45] = Upregulation of PPARgamma expression in human SCC-15 cells at 1 uM incubated for 48 hrs Western blot analysis relative to control; assay type: functional
[46] = Upregulation of Ki67 expression in human SCC-15 cells at 1 uM incubated for 48 hrs Western blot analysis relative to control; assay type: functional
[47] = Downregulation of PCNA expression in PPARgamma-silenced human SCC-15 cells at 1 uM incubated for 48 hrs Western blot analysis relative to control; assay type: functional
[48] = Upregulation of PCNA expression in PPARgamma-silenced human SCC-15 cells at 1 uM incubated for 48 hrs Western blot analysis relative to siRNA control; assay type: functional

O=C1CC(N2C(=O)/C(=C/C(Cl)=C/c3ccc([N+](=O)[O-])cc3)SC2=S)C(=O)N1c1ccc(O)cc1 (stereo not drawn)
IC50 [1]: 1 µM
IC50 [2]: 1 µM
IC50 [3]: 1 µM
IC50 [4]: 1 µM
IC50 [5]: 1 µM
IC50 [6]: 1 µM
EC50 [7]: 24.9 µM
EC50 [8]: 32.8 µM
Activity [9]: 16.8%
Activity [10]: 106.2%
Activity [11]: 115.3%
Activity [12]: 150.7%
Activity [13]: 90.92%
IC50 [14]: 17.7 µM
IC50 [15]: 6.72 µM
Activity [16]: 43.58%
Activity [17]: 77%
Activity [18]: 79.14%
Activity [19]: 69.88%
Activity [20]: 82.23%
Activity [21]: 83.18%
Activity [22]: Non-Toxic
Activity [23]: Non-Toxic
IC50 [24]: > 100 µM
IC50 [25]: > 100 µM
IC50 at 72 h [26]: 73.6 µM
Activity [27]: inactive
Activity [28]: 11.01%
Activity [29]: 23.37%
Activity [30]: 41.15%
Activity [31]: Dose-Dependent Effect
Activity [32]: Tde
Activity [33]: 74.97%
Activity [34]: 62.85%
Activity [35]: 21.32%
Activity [36]: 34.9%
Activity [37]: 13.77%
Activity [38]: 15.99%
Activity [39]: 5.73%
Activity [40]: 60.85%
Activity [41]: 33.59%
Activity [42]: 4.74%
Activity [43]: 32.59%
Activity [44]: 19.96%
Activity [45]: 18.58%
Activity [46]: 28.61%
Activity [47]: 66.68%
Activity [48]: 23.6%
